# Reference: US10830683B2, “Method for measuring coagulation of blood samples using viscoelastic tests (VET)” (CA Casyso GmbH, priority 2012, dated 2020)
# Tested on: citrated whole blood
# Test: ROTEM (NATEM) of recalcified citrated whole blood with added bead suspension or supernatant
# Type: cell-based, human
# Conditions: cell-coated beads preincubated with TNFα 10 ng/ml for 12-16 h; compared with unstimulated cells
# Method: To seed endothelial cells on microbeads, an approximate cell count of 400 OEC or HUVEC per bead was mixed with Cytodex 3 (collagen-coated) dextran microcarrier beads (GE Healthcare Bio-Sciences AB, Uppsala, Sweden) in 1 ml of EGM-2 medium. Beads and cells were incubated at 37° C. and 5% CO2 for 4 h and shaken gently every 20 min. After transferring the suspension to a 25-cm^2 tissue culture flask (Greiner Bio-One, Linz, Austria), microbeads were optionally incubated with TNFα (Sigma Aldrich, Vienna) at a final concentration of 10 ng/ml for 12-16 h at 37° C. and 5% CO2 in 4 ml of EGM-2 to simulate an inflammatory situation. To assess the influence of collagen, data from bare, collagen-coated Cytodex 3 were compared with uncoated Cytodex 1 (GE Healthcare Bio-Sciences AB, Uppsala, Sweden) beads in an identical setting.
# Coated Beads and overnight-conditioned cell culture supernatant were gently taken up with a 10 ml serological pipette and transferred to a 15 ml Falcon tube. Once beads descended, the supernatant was carefully transferred to 1.5 ml tubes and centrifuged at 1,500×g for 20 minutes. […]
# The following ROTEM parameters were calculated from the signal and included in the statistical analysis: Clotting time (CT, sec), latency until the clot reaches a firmness of 2 mm; measure for initial thrombin and fibrin formation. […]
substance,measurement,value
TNFα,Clotting time (CT) after prior activation of cells,significant further shortening of CT
